Data from patent US20240300941A1, “HPK1 INHIBITORS, PREPARATION METHOD AND APPLICATION THEREOF” (ZHUHAI YUFAN BIOTECHNOLOGIES CO., LTD., priority 2018, published 2024).

How the values were obtained:
[1] = system: pSLP-76(Ser376) in Jurkat E6-1 cells; test: Jurkat E6-1 pSLP-76(Ser376) HTRF experiment; assay type: cell-based; details: 4 hours compound incubation, anti-human CD3 antibody 20 minutes, Phospho-SLP-76 / SLP-76 HTRF
Description: Jurkat E6-1 cells were purchased from ATCC (Cat. No. TIB-152TM) and cultured overnight with RPMI 1640 containing 0.5% o FBS, after that 20 μL (10^7 cells/mL) cells were added to the experimental plates. Then the test compounds were diluted by three-fold gradient, and 10 different concentrations were prepared, and 5 μl of each was added to the experimental plate, and incubated for 4 hours in 37° C. incubator containing 5% CO2. Then 5 ul of 6× anti-human CD3 antibody (Biolegend, Cat. No. 300432) was added and incubated for 20 minutes in 37° C. incubator containing 5% CO2. Finally, the Phospho-SLP-76 and SLP-76 results were determined using the Cisbio Phospho-SLP-76 and SLP-76 HTRF assay kits (items: 63ADK076PEH and 63ADK077PEH, respectively). Based on the results, the IC50 of the compound is calculated.

HPK1 = HPK1 (Homo sapiens (Human), UniProt Q92918); test: HPK1 ADP-Glo enzyme assay; assay type: biochemical; details: HPK1 protein 5 nM, MBP and ATP substrate, ADP-Glo readout
Chain of HPK1 (Q92918 whole entry): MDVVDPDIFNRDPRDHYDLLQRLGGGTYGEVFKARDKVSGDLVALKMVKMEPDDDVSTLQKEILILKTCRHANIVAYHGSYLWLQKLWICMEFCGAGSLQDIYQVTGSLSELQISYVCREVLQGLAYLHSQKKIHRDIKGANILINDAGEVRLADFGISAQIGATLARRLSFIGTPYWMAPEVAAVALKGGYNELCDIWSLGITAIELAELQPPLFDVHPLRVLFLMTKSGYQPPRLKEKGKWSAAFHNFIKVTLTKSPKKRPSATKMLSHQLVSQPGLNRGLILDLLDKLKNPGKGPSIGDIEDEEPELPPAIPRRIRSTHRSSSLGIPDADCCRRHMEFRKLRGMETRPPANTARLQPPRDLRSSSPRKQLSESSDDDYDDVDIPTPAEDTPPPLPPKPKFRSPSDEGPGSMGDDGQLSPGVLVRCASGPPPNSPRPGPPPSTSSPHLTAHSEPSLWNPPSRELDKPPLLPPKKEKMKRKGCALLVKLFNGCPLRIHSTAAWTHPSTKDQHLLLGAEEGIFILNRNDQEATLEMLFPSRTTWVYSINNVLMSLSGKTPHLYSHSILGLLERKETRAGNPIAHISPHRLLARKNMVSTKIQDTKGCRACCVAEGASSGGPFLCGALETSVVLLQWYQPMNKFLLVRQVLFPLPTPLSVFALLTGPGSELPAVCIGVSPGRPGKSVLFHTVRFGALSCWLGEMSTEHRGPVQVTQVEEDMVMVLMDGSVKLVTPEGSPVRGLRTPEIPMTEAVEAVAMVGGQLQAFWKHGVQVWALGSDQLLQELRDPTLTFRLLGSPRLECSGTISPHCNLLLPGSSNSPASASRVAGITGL
Description: The buffer used in the enzyme assay contains 5 mM MOPS (pH=7.2), 2.5 mM β-Glycerol Phosphate, 0.4 mM EDTA, 1 mM EGTA, 0.05 mM DTT, 5 mM MgCl2. The compound was dissolved in 100% DMSO at the concentration was 10 mM. The initial concentration of the test was 5 uM, and ten data points were diluted by three-fold gradient, and each point was repeatedly measured twice. The HPK1 protein was purchased from Thermo (Cat. No. PV6355) and diluted to 2× stock solution at the concentration of 10 nM (the final concentration of the enzyme assay was 5 nM). 2.5 µl of 2×HPK1 protein was added to each well of the plate containing the test compound, centrifuged at 1000 rpm for 30 seconds, and then incubated at 25° C. for 15 minutes. MBP protein was purchased from Millipore (Cat. No. 13-110) and ATP was purchased from Sigma (Cat. No. A7699-5G) and the two were formulated into 2× working solutions at concentrations of 4 uM and 80 uM. Added 2.5 μl mixture of 2×MBP and ATP, centrifuged at 1000 rpm for 30 seconds, then incubated at 25° C. for 90 minutes. Then added 5 ul of ADP-Glo™ (Promega, Cat. No. V9102) to the assay plate and incubated […] at 25° C. for 60 minutes. Finally, 10 ul of the kinase assay reagent (Promega, Cat. No. V9102) was added to the assay plate, centrifuged at 1000 rpm for 30 seconds at 25° C. for 60 minutes, and the […] intensity was determined.

| IC50 [1] | IC50 (HPK1) | SMILES |
| --- | --- | --- |
| 1 to 50 µM | 0.1 to 1 µM | CN1CCC(c2ccc(-c3cnc(N)c(OCc4ccncc4)c3)nc2)CC1 [A43] |
| 1 to 50 µM | < 0.1 µM | CCC(C)c1ncc(-c2cnc(N)c(OCc3cccc(C#CC(C)(C)O)c3)c2)s1 (stereo not drawn) [A20] |
| 1 to 50 µM | 0.1 to 1 µM | Cc1ncc(-c2cnc(N)c(OCc3ccncc3)c2)s1 [A35] |

More lines, now with the values behind:

| SMILES | IC50 [1] | IC50 (HPK1) |
| --- | --- | --- |
| C#Cc1cc(COc2cc(-c3cnc(C4CCN(C)CC4)s3)cnc2N)ccn1 [A39] | < 1 µM | < 0.1 µM |
| Cc1cc(C#CC(C)(C)O)cc(COc2cc(-c3cnc(C4CCN(C)CC4)s3)cnc2N)c1 [A71] | < 1 µM | < 0.1 µM |
| CN1CCC(c2ncc(-c3cnc(N)c(OCc4ccc(F)cc4)c3)s2)CC1 [A5] | 1 to 50 µM | 0.1 to 1 µM |
